Test [1] is described as follows: PS SPR binding assay (Biacore T200, L1 chip). Particulars: DOPC/DOPS (3:1, v/v) liposomes on L1 chip, 25 °C. The method, then:
Phospholipids, 1,2-dioleoyl-sn-glycero-3-phosphocholine (DOPC) and 1,2-dioleoyl-sn-glycero-3-[phosphate-L-serine] (DOPS) were obtained as chloroform solutions from Avanti Polar Lipids (Alabaster, AL, USA). These stock solutions were mixed in the specified proportions. A 0.4 mL aliquot of the lipid solution at a 10 mg/mL concentration was added to a round bottom flask and evaporated under a stream of N2 to provide a thin lipid film. The lipid films were rehydrated in PBS buffer for at least 1 h at room temperature. The resulting suspension was extruded through a 100 nm polycarbonate filter using an Avanti MiniExtruder according to the manufacturer’s instructions. Zeta potential (ZP) and liposome size distribution were recorded by dynamic light scattering (DLS) and microelectrophoresis using a Zetasizer Nano ZS instrument. The binding kinetics between conjugates and liposomes were recorded at 25 °C using a Biacore T200 biosensor equipped with an L1 sensor chip (GE Healthcare, Chicago, IL, USA). The new sensor chip was pretreated with running buffer (5% DMSO in phosphate buffered saline (PBS) at a pH of 7.4) and two consecutive 30 s pulses of 2:3 v/v 50 mM HCl/isopropanol at a flow rate of 30 μL/min. New liposome capture plates were prepared for each binding cycle. In PBS buffer, liposomes are diluted to 0.5–1 mM and captured to saturation in isolated flow cells at 2–5 μL/min (30–150 s). […]
A general note: Surface plasmon resonance follows binding to a sensor surface in real time, without labels.

For test [2], the system named is sorafenib-resistant hepatocellular carcinoma. Nature of the test: Oncogene-induced, sorafenib-resistant HCC mouse model. In kind it is in vivo. On the procedure: Cancer cells suspended in RPMI 1640 medium (11835-030, Thermo Fisher Scientific, Waltham, MA, USA) were mixed with Matrigel™ (356237, BD Biosciences, Franklin Lakes, NJ, USA) in a 1:1 ratio. Human triple-negative breast cancer HCC1806 (1 × 10^6 cells) cells were inoculated subcutaneously into the left flank of 6-week-old female nude mice (BioLASCO Taiwan, Taipei, Taiwan) using a 1 mL syringe with a 24G needle (AN-2425R, Terumo Medical Corp., Tokyo, Japan). Tumor dimensions were measured twice weekly using electronic calipers (FOW54-200-777, PRO-MAX), and the volume of tumor grown subcutaneously (mm^3) was calculated by the formula Volume = (length × width^2)/2. A combination of 10% DMA/20% Cremophor EL/70% 5% dextrose injection (D5W) was formulated to treat HCC1806 xenograft tumors. Mice with HCC1806 tumors were grouped and administered the indicated dosing regimen of 1 mg/kg for the conjugate and 0.3 mg/kg for the cytotoxic payloads DM1 and DM4 twice-weekly (day 1 and day 4) for 2 weeks when the mean tumor volume was approximately 200–250 mm^3 or 850–900 mm^3 (large tumors). The conjugate dose of 2 mg/kg was administered weekly for the large tumor study. The body weight and tumor volume of mice were measured twice weekly. In addition, a previously reported oncogene-induced, sorafenib-resistant HCC mouse model was used in the current study to examine the antitumor activities of synthesized compounds. Briefly, plasmids including transposase (pCMV(CAT)T7-SB100), human Akt1, and luciferase (pKT2/CLP-AKT-2A-OVA-HBc-HBs-LUC) and the N-Ras V12 mutant (pT/Caggs-NRASV12) were hydrodynamically injected (HDI) and the liver was monitored for the appearance of HCC. HCC mice with a total flux of more than 1 × 10^9 photons/s from IVIS imaging were used as treatment conjugates. The indicated conjugate was administered intravenously at 1 mg/kg 3 times per week over 2 weeks. IVIS imaging was repeatedly performed to follow tumor progression, and tumor tissue from treated HCC mice was collected for histological examination and RNA extraction after administration.
Paraffin-embedded liver/tumor tissue sections were de-paraffined, re-hydrated, and then subjected to heat-induced antigen retrieval, followed by incubation with primary Abs. The primary antibodies used to detect Ki-67 and CD8α were SP6 (Abcam, Cambridge, UK) and D4W2Z (Cell Signaling Technology, Danvers, MA, USA), respectively. ImmPRESS anti-rat Ig, ImmPRESS anti-rabbit Ig, polymer detection kit, DAB peroxidase substrate kit (Vector laboratories, Burlingame, CA, USA), and liquid permanent red substrate (Dako, Glostrup, Denmark) and Hematoxylin Gill II (Leica, Wetzlar, Germany) were used for detection and visualization. Images were taken by NHRI’s Pathology Core Laboratory using an automated digital slide scanner Pannoramic MIDI with a Plan-Apochromat 20×/0.8 objective (3D HISTECH, Budapest, Hungary).
Total RNA was extracted from conjugate-treated or vehicle-treated HCC mouse tumor tissue using the RNA-easy kit (QIAGEN, Hilden, Germany). The concentration (absorbance at 260 nm) and purity (A260/280 and A260/230 ratios) of the extracted RNA was measured spectrophotometrically; RNA integrity was further determined using the 2100 Bioanalyzer System (Agilent RNA was further determined for RNA integrity using a 2100 Bioanalyzer System (Agilent Technologies, Santa Clara, CA, USA). RNA was hybridized to the barcode probe provided in the nCounter Mouse Pan-Cancer Immunoassay Kit (NanoString Technologies, Seattle, WA, USA) and then used to measure mRNA expression of 770 genes associated with the immune response. Nanostring nSolver 4.0 and nCounter Advanced Analysis 2.0 software (NanoString Technologies) was used for data processing, immune cell analysis, and pathway scoring according to the developer’s instructions.

Setting [3] is: Nanostring mRNA analysis vs vehicle.
The mark [4] stands for this setting: Nanostring pathway scoring vs vehicle.

On to `COc1cc2cc(c1Cl)N(C)C(=O)CC(OC(=O)C(C)N(C)C(=O)CCSC(=O)c1ccc(CN(CCOCCOCCNC(=O)c3ccc(CN(CCCCOc4cc(CN(Cc5ccccn5)Cc5ccccn5)cc(CN(Cc5ccccn5)Cc5ccccn5)c4)C(=O)C4(c5ccc(Cl)cc5)CCCCC4)cc3)C(=O)C3(c4ccc(Cl)cc4)CCCCC3)cc1)C1(C)OC1C(C)C1CC(O)(NC(=O)O1)C(OC)C=CC=C(C)C2.O=[N+]([O-])[O-].O=[N+]([O-])[O-].O=[N+]([O-])[O-].O=[N+]([O-])[O-].[Zn+2].[Zn+2]` (centres unmarked) [Zn8_DM1], for which, in test [1], the “association with PS-coated liposomes (SPR)” value is given as “still allowed recognition”. Moreover, in test [2] (1 mg/kg i.v. 3 times a week for 2 weeks), the “anti-HCC tumor growth (flux of luciferase activity)” value was “potent anti-HCC tumor growth”. In addition, the “CD8+ T-cell infiltration in tumors” value in test [2] (CD8α immunohistochemistry) is given as “significant increase”. In test [2] (setting [3]), the “CXCL9 gene expression in tumor tissue” value is “significant upregulation”, the “PD-L1 gene expression in tumor tissue” value is given as “elevated PD-L1 gene expression” and the “STAT1 gene expression in tumor tissue” value is on record as “elevated”. Moreover, in test [2] (setting [4]), the “NK cell function score in TME” value is on record as “significant improvement”, the “T-cell function score in TME” value was “significant improvement” and the “interferon score in TME” value is listed as “significant improvement”. Moreover, the “Ki-67 staining of tumor samples” value in test [2] (immunohistochemistry, treated tumor) is on record as “marked reduction in Ki-67 staining”. In addition, the “liver tumor burden vs vehicle” value in test [2] (livers harvested a week post last dose) is given as “less tumor burden”.
